In assay [1] the test system is PAF-mediated bronchoconstriction. The assay is described as follows: PAF-induced Pulmonary Inflation Pressure (PIP) Increase test (test B). The class given is in vivo. Conditions: po. The method, then:
Moreover, in view of their activity as PAF receptor antagonists, the compounds are indicated for use as inhibitors of PAF-mediated bronchoconstriction, which property is evaluated by the PAF-induced Pulmonary Inflation Pressure (PIP) Increase test (test B) as described in WO 88/587, to generate an EDso (dose needed to effect a 50°/o response).

The target in assay [2] is T1, platelet activating factor (PAF) receptor (Homo sapiens, UniProt P25105).
T1 construct: endogenous in cells; host or cells: human platelets
T1 sequence (P25105 whole entry): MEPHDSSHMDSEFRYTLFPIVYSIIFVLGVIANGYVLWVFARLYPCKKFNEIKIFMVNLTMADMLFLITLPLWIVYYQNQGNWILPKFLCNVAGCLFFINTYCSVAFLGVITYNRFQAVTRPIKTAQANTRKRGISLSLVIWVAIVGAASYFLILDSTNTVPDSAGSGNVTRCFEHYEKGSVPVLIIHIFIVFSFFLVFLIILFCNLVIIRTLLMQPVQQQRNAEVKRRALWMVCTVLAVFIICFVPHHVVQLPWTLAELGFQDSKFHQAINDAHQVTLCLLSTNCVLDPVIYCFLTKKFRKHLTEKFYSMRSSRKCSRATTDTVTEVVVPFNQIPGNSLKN
The assay is described as follows: Human Platelet PAF Receptor Assay test (test A): inhibition of specific binding of [3H]-PAF to platelets. An excerpt: The compounds of formula I in free base form or in pharmaceutically acceptable acid addition salt form, hereinafter referred to as "the compounds", are indicated for use as platelet activating factor (PAF) receptor antagonists, as indicated by their ability to inhibit specific binding of [^3H)-PAF to platelets according to the Human Platelet PAF Receptor Assay test (test A) as described in WO 88/587.

The subject of assay [3] is PAF-mediated extravasation. Description: PAF-induced Extravasation test (test C), measured as a function of hemoconcentration. Format: in vivo. The following applies: po. An excerpt:
Furthermore, the compounds are indicated for use as inhibitors of PAF-mediated extravasation (the extrusion of plasma from the lumen of the blood vessels into the vessel wall and surrounding tissues) measured as a function of hemoconcentration according to the PAF-induced Extravasation test (test C) as described in WO 88/587. From the values obtained an EDso is generated.

What is called inhibition is how much of the control response was suppressed. Read a low inhibition as little suppression. The IC50 is the midpoint of a concentration-inhibition curve. A lower IC50 goes with greater potency in that assay.

`COc1cc(CCc2ccc(C3=Cc4oc(C)cc4C4=NCCN34)cc2)cc(OC)c1OC` [Example 2, 2,3-Dihydro-8-methyl-5-[4-[2-(3,4,5-trimethoxyphenyl)ethyl]phenyl]imidazo[1,2-a]furo[3,2-c]pyridine]: the figures for the inhibition at 10 mg/kg in assay [1] (at 10 mg/kg p.o.) and in assay [3] (at 10 mg/kg p.o.) were 38% and 59%, respectively. The molecule also returned an IC50 in assay [2] of 70 nM.

For `COc1cc(CCc2ccc(C3=Cc4ccsc4C4=NCCN34)cc2)cc(OC)c1OC` [Example 1, 2,3-Dihydro-5-[4-[2-(3,4,5-trimethoxyphenyl)ethyl]phenyl]imidazo[1,2-a]thieno[2,3-c]pyridine], the ED50 in assay [1] (dose needed to effect a 50% response, read-out: EDso) was found to be 1 mg/kg; in assay [3] it was 1 mg/kg. In assay [2], the IC50 turned out to be 100 nM.

The record behind these values is patent EP0341213A2, “5-Aryl-substituted-2,3-dihydro-imidazo [1,2-a]furo[3,2-c]- or thieno[2,3-c]pyridines” (SANDOZ AG, priority 1988, dated 1989).
